Active and inactive are the calls of the source.

Assay [1] has as its target 72 kDa type IV collagenase (Homo sapiens, UniProt P08253). As to the kind of experiment: Dose Response validation of uHTS RPN11 inhibitor hits using a MMP-2 Fluorescence assay. In kind it is functional.
Assay [2] addresses 26S proteasome non-ATPase regulatory subunit 14 (Homo sapiens, UniProt O00487). In words: inhibition of proteasome subunit RPN11 – biochemical, fluorescence polarization, uHTS hits, confirmation (AID 602368). In kind it is functional.
For another assay, the target named is Prothrombin (Bos taurus, UniProt P00735). In words: thrombin protease inhibitors – biochemical, fluorescence polarization, uHTS hits, dose response (AID 602369). It is filed as functional. In general terms: Polarisation of emitted light reports the rotation of a fluorescent probe.
Assay [3] concerns the target T1, High affinity choline transporter 1 (Homo sapiens, UniProt Q9GZV3).
T1 sequence (Q9GZV3 whole entry): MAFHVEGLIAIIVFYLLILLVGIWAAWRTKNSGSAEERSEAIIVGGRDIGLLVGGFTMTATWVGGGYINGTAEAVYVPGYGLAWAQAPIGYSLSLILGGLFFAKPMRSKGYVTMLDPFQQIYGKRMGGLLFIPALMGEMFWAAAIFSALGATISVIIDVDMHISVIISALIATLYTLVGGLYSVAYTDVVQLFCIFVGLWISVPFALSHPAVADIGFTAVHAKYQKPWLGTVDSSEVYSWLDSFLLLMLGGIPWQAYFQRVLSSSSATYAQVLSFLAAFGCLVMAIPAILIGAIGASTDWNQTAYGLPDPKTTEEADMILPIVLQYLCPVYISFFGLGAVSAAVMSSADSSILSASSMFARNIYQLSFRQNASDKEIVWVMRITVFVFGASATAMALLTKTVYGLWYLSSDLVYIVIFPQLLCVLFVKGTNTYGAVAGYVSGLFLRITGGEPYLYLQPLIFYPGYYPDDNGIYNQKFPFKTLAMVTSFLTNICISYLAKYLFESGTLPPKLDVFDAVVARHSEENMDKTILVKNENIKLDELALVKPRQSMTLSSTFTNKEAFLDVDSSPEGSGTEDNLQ
In words: human choline transporter blockers, potency – cell-based, 10-point CRC, membrane potential dye, dose response (AID 588401).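 Also: membrane potential dye fluorescence of choline-evoked depolarization via CHT.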 In kind it is functional.

The target of assay [4] is T1, High affinity choline transporter 1. In words: human choline transporter blockers, potency – cell-based, 5-point CRC, membrane potential dye, dose response (AID 504840). It is filed as functional.
Assay [5] can be described thus: fluconazole-exposed Candida albicans growth modulators – fluorescence, retest, confirmation (AID 2467). In kind it is functional, cell-based.
The nature of assay [6]: NIH-3T3 fibroblast cytotoxicity, dose response, cytotoxicity control, cell-based, fluorescence, Alamar Blue, secondary assay (AID 2327).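 Also: NIH-3T3 mouse fibroblasts cultured with fluconazole at 8 µg/mL.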 In kind it is functional.
The target of assay [7] is Multidrug resistance protein CDR2 (Candida albicans (strain SC5314 / ATCC MYA-2876) (Yeast), UniProt P78595). In words: blockers of Nile Red efflux by Candida CDR2 – S. cerevisiae AD1-8u, singleplex, Cherry Pick2 set, dose response (AID 623994). In kind it is functional. The conditions noted are these: read-out: EC50_MICROM.
For the next assay, the system named is CHO. In words: CHO cell viability loss, potency – luminescence, cytotoxicity control for TLR9-MyD88 binding inhibitor project, dose response (AID 588339).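 Also: CHO cells stably coexpressing TLR9 and MyD88 fusions from primary screen; compound exposure lasted 48 hours before viability readout.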 In kind it is functional, cell-based, hamster. The conditions noted are these: Cricetulus griseus.
For assay [8], the target named is Beta-lactamase (Salmonella choleraesuis (strain SC-B67), UniProt Q5J463).
The target in assay [9] is T2, Insulin-degrading enzyme (Homo sapiens, UniProt P14735).
T2 sequence (P14735 whole entry): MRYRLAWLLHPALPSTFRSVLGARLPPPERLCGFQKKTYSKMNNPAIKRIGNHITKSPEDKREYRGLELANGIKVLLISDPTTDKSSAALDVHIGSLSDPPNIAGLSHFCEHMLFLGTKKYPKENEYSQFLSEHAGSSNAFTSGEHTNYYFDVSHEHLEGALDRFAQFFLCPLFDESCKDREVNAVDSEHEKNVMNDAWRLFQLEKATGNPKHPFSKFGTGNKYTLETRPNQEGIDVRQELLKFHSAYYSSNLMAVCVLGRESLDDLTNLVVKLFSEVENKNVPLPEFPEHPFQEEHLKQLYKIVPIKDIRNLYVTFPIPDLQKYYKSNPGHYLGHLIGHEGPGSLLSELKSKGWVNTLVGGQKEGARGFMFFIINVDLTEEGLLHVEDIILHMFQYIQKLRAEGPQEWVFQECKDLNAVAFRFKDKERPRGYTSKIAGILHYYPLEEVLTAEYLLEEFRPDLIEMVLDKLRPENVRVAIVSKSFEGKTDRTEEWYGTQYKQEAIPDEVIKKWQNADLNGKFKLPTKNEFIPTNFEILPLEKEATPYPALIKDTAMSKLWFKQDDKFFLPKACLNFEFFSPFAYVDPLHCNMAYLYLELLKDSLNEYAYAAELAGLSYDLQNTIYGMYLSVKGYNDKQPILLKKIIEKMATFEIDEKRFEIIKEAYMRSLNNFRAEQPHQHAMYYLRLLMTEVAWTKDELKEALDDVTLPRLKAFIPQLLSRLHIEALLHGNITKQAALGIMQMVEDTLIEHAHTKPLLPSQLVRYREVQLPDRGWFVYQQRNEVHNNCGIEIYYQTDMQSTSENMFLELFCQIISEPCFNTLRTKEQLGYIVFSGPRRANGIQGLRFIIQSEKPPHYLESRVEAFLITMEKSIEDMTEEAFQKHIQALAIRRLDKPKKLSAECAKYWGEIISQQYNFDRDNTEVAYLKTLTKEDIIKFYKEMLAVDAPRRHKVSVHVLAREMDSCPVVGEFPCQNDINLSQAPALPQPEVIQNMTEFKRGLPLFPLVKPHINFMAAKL
As to the kind of experiment: recombinant IDE activation, cell-free – biochemical, fluorescence polarization, counter-screen for IDE activator project, dose response (AID 588681).

Assay [10] relates to HEK293. As to the kind of experiment: optical interference in Abeta FP readout, dose response, artefact control for IDE activator project, biochemical, fluorescence polarization (AID 588442). In kind it is functional, cell-based. The conditions noted are these: Homo sapiens.
The test system of assay [11] is HEK293. As to the kind of experiment: membrane integrity loss in HEK cells – cell-based, fluorescence, cytotoxicity control for IDE activator project, dose response (AID 588440).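 Also: cytotoxicity by LDH release measuring loss of membrane integrity.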 It is filed as functional. The conditions noted are these: Homo sapiens.
In assay [12] the target is Beta-lactamase (Pseudomonas aeruginosa, UniProt Q79MP6).
Assay [13] addresses T2, Insulin-degrading enzyme. In words: cellular IDE activation of Abeta substrate cleavage – fluorescence polarization, HEK cells, dose response (AID 588439). In kind it is functional, cell-based.
Assay [14] is described as follows: non-specific 3'UTR reporter inhibition in Clone20-Shn3RL – cell-based, Renilla luciferase, cherry-picked, counter-screen for Shn3 inhibitor project, dose response (AID 624133). It is filed as functional. For orientation: Counterscreens check selectivity or assay interference.
Assay [15] in a line: loss of viability in HepG2 cells – cell-based, CellTiter-Glo, cherry-picked, cytotoxicity control for Shn3 inhibitor project, dose response (AID 624134). In kind it is functional.
Assay [16] is described as follows: Luminescence Cell-Based Dose Retest to Confirm Inhibitors of Cancer Stem Cells. [Related pubchem assays (depositor defined):AID2717, AID2721]. In kind it is functional. The settings on record: Homo sapiens.
The subject of a further assay is INS1. In words: INS-1E survival protection against cytokine death – cell-based, luminescence, retest, dose response (AID 449756).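 Also: cell death triggered by IL-1 beta plus TNF-alpha plus IFN-gamma mixture; protective hits raise ATP signal compared with cytokine alone wells.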 In kind it is functional. The conditions noted are these: Rattus norvegicus.
Assay [17] in a line: reduction of Shn3 3'UTR-driven luciferase in osteoblasts – cell-based, Clone20 osteoblasts, firefly luciferase, cherry-picked, dose response (AID 624132).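 Also: firefly luciferase luminescence from reporter carrying the Shn3 3'UTR in osteoblasts.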 It is filed as functional.
Assay [18] can be described thus: viability of PTEN-deleted HCT116 cells – cell-based, HCT116 PTEN knockout, dose response (AID 1047).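 Also: HCT116 colon tumor cells with PTEN knocked out; cells exposed to compound for 60 hours before readout.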 It is filed as functional.
The next assay addresses T3, Cytochrome P450 1A2 (Homo sapiens, UniProt P05177).
T3 sequence (P05177 whole entry): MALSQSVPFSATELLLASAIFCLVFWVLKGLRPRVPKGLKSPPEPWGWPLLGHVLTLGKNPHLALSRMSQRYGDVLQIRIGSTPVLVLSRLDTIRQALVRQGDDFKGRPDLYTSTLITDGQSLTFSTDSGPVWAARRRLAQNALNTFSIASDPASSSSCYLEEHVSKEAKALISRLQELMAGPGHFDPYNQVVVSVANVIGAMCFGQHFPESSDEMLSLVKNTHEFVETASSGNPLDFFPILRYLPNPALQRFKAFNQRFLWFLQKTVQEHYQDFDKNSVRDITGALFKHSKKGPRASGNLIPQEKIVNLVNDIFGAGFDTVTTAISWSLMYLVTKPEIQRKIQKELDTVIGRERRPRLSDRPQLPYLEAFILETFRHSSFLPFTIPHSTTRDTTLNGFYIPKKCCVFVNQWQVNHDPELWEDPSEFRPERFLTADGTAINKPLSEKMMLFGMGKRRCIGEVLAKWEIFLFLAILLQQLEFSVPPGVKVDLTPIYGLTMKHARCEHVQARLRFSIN

Assay [19] in a line: viability of HCT116 lacking mutant beta-catenin – cell-based, human colon tumor, dose response (AID 1045).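 Also: HCT116 colon tumor cells with beta catenin knocked out; cells exposed to compound for 60 hours.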 It is filed as functional.
Assay [20] has as its target T4, Interleukin-8 (Homo sapiens, UniProt P10145). In words: Dose Response confirmation of uHTS small molecule hits for cystic fibrosis induced NFkb Inhibitors in a PAF-induced IL8 counterscreen. It is filed as functional. The settings on record: read-out: IC50_Mean.
Assay [21] has as its target T4, Interleukin-8. As to the kind of experiment: Dose Response confirmation of uHTS small molecule hits for cystic fibrosis induced NFkb Inhibitors in a TNFa-induced IL8 counterscreen. The conditions noted are these: read-out: IC50_Mean. In kind it is functional.
Assay [22] has as its system HEK293. As to the kind of experiment: cells. The conditions noted are these: Homo sapiens.
A further assay has as its target Kallikrein-7 (Homo sapiens, UniProt P49862). In words: Fluorescence Intensity-based biochemical primary high throughput dose response assay to identify activators of kallikrein-7 (K7) zymogen.
The test system of assay [23] is HEK293. In words: cells. The settings on record: Homo sapiens. The source holds these as a separate data set.

T4 sequence (P10145 whole entry): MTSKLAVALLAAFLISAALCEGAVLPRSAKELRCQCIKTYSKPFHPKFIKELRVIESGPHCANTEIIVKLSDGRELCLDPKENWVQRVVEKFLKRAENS
Kallikrein-7, sequence (P49862 whole entry): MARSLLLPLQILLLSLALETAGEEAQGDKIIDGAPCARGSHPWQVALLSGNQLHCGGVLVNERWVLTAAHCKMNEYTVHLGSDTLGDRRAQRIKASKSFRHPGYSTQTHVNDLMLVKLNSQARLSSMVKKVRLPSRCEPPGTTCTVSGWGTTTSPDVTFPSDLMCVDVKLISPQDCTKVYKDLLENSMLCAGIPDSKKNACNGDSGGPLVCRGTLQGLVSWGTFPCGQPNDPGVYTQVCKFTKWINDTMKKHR
Beta-lactamase (Pseudomonas aeruginosa, UniProt Q79MP6), sequence (Q79MP6 whole entry): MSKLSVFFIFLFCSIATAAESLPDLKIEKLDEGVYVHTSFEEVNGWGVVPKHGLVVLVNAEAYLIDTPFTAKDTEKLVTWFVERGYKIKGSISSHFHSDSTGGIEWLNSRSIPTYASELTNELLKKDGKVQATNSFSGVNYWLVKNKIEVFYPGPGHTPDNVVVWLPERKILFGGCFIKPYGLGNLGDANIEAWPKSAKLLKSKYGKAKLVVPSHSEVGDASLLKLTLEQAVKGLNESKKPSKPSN
Multidrug resistance protein CDR2, sequence (P78595 whole entry, the tested form may be a part): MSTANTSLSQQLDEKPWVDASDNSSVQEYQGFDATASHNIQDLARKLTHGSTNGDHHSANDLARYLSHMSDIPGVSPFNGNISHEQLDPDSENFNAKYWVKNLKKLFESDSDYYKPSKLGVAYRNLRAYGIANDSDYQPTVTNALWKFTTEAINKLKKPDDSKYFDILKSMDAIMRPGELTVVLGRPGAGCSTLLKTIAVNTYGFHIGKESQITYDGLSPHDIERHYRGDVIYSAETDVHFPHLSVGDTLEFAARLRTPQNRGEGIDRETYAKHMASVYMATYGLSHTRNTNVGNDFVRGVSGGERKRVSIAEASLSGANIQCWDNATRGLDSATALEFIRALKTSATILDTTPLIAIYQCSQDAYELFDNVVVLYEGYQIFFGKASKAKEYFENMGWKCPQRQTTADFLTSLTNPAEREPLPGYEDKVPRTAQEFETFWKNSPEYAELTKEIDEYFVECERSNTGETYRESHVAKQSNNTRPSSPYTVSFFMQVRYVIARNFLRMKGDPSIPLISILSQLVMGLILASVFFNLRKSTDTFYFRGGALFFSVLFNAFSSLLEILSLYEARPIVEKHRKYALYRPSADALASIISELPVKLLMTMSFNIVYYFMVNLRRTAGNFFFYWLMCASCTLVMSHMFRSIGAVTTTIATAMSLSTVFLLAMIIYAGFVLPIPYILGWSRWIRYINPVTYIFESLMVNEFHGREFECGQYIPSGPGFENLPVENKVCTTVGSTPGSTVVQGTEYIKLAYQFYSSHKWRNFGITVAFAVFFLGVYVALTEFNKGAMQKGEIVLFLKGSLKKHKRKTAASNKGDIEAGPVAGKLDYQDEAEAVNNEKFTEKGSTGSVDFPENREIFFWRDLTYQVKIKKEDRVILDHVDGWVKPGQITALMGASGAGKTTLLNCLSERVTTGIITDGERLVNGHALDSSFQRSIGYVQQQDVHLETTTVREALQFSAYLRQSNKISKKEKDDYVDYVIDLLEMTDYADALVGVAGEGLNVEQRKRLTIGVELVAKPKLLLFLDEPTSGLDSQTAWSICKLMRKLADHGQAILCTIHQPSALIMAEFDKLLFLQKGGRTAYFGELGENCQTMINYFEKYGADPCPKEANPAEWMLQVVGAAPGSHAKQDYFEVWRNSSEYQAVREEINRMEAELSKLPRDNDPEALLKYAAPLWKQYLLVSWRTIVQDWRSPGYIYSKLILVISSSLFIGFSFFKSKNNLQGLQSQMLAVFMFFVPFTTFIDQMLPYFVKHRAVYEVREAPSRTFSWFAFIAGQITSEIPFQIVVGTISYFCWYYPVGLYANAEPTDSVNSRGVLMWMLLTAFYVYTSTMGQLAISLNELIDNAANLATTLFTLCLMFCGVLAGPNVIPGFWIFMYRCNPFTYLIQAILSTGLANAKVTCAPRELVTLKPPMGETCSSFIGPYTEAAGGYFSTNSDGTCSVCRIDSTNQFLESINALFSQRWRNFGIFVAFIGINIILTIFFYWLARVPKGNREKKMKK
72 kDa type IV collagenase, sequence (P08253 whole entry): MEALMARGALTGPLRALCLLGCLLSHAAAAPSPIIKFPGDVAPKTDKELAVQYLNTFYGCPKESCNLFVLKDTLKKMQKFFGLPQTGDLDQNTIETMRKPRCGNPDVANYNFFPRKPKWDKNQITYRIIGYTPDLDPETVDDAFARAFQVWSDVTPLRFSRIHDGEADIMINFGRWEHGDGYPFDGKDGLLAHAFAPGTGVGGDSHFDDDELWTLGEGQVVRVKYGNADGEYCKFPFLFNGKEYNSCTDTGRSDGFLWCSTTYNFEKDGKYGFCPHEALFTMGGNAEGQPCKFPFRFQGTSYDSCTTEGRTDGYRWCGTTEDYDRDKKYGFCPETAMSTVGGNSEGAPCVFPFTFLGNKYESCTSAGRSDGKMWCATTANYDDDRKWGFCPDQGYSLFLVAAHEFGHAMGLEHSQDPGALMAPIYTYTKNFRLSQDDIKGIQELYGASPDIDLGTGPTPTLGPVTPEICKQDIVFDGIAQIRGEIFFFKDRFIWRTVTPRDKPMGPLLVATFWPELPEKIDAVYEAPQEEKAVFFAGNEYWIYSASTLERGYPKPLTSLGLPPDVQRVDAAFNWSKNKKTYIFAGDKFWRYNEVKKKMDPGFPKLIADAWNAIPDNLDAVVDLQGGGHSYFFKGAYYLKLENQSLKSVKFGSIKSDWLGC
26S proteasome non-ATPase regulatory subunit 14, sequence (O00487 whole entry): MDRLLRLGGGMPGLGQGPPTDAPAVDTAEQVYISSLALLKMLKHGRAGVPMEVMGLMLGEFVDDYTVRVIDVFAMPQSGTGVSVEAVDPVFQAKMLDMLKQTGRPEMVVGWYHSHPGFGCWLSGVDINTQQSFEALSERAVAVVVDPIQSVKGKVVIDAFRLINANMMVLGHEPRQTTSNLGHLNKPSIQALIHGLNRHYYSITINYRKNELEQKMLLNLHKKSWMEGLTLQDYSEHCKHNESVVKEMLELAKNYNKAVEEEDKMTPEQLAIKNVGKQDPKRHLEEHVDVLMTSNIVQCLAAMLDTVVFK
Beta-lactamase (Salmonella choleraesuis (strain SC-B67), UniProt Q5J463), sequence (Q5J463 whole entry): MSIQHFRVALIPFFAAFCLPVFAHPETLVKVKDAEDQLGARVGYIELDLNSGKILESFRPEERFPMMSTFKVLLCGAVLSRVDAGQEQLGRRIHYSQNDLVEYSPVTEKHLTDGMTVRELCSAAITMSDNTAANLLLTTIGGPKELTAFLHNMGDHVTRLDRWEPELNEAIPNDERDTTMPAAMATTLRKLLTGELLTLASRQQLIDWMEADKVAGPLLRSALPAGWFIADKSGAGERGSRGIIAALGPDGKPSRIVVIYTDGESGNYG

Consider `Cc1cc(C(F)(F)F)nc(SCCN2CCOCC2)c1C#N`, for which the values for the IC50 (in assay [1]; in assay [2]; at Prothrombin) were > 100 µM (inactive), 19.7 µM (active) and 25.7 µM (active), respectively.
For `CCCCn1nc2cc(C(=O)N[C@H](C)C3CCCCC3)ccc2c1OCC`, the figures for the IC50 in assay [3] and in [4] were 4.47 µM (active) and 7.76 µM (active), respectively.
On to `CCC(=O)N1CCN(c2ccc(Cl)cc2NC(=O)c2ccc3c(c2)OCCO3)CC1`, for which the results for the EC50 in assay [5], in assay [6] and in assay [7] were 3.35 µM (active), 117 µM (active) and 32.1 µM (active), respectively.
On to `CCCCNc1ccc2c3c(cccc13)C(=O)N(CCCC)C2=O`, for which the IC50 in the assay on CHO is > 49.7 µM (inactive); on Beta-lactamase [8], 3.89 µM (active); with HEK293 [11] it was > 89.1 µM (inactive); at Beta-lactamase [12], 37.2 µM (inactive). The EC50 at Insulin-degrading enzyme [9] is > 54.7 µM (inactive); in the assay with HEK293 [10], 12.1 µM (inactive); on Insulin-degrading enzyme [13] it was > 54.7 µM (inactive).
For the molecule `COc1ccc(Cn2c(SCc3ccccc3C)nc3cc(OC)c(OC)cc3c2=N)cc1`, the AC50 was 16 µM (active) in [14]; 12.8 µM (active) in [15]; 2.71 µM (active) in assay [16]; 4.3 µM (active) in the assay with INS1; 5.46 µM (active) in assay [17]; 15.8 µM (inconclusive) on Cytochrome P450 1A2. The EC50 at Insulin-degrading enzyme [9] is > 54.7 µM (inactive); in the assay with HEK293 [10], > 54.7 µM (inactive); in [18], 4.85 µM (active); on Insulin-degrading enzyme [13] it was 9.39 µM (active); in assay [19], 3.81 µM (active). In addition, in the assay on HEK293 [11], the IC50 was 18.5 µM (inactive).
`O=C(NCCc1ccccc1)c1coc(=O)c(Br)c1`: the IC50 at Interleukin-8 [20] is 0.987 µM (active); at Interleukin-8 [21], 0.684 µM (active). Moreover, the EC50 with HEK293 [22] is > 59.6 µM (inactive); on Kallikrein-7, 16.5 µM (inactive); in the assay with HEK293 [23], > 59.6 µM (inactive).

The term AC50 denotes the concentration at which the activity in the assay is half-maximal.
